Experimental data reported in ChEMBL document CHEMBL1201862, “PubChem BioAssay data set” (2004).
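Step 1: Grow cells in 96-well plates. Step 2: Expose to compound for 48 hours at 5 concentrations. Step 3: Interpolate endpoints linearly; if unreached, use highest concentration. The concentration for 50% growth inhibition is given as GI50.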 The source made the active and inactive calls. Cut-off read from the data, not from the text of the source: active = GI50 up to about 1.1 µM and inactive = higher.

Assays:
Experiment in all cases: NCI-60 cell line screen, 48 h
[1] = system: 786-0
[2] = system: ACHN
[3] = system: CAKI-1
[4] = system: CCRF-CEM
[5] = system: EKVX
[6] = system: HL-60
[7] = system: KM12
[8] = system: M14
[9] = system: Malme-3M
[10] = system: NCI-H23
[11] = system: OVCAR-4
[12] = system: OVCAR-8
[13] = system: SF-539
[14] = system: SK-MEL-28
[15] = system: SK-MEL-2
[16] = system: SR
[17] = system: UO-31
[18] = system: NCI/ADR-RES

Measured: GI50

O=C(CCc1nnc2s/c(=C\c3ccccc3Cl)c(=O)n12)Nc1cc(Cl)ccc1Cl
inactive: [1] > 100 µM | [2] > 100 µM | [3] > 100 µM | [4] > 100 µM | [5] > 100 µM | [6] > 100 µM | [7] > 100 µM | [8] > 100 µM | [9] > 100 µM | [10] > 100 µM | [11] > 100 µM | [12] > 100 µM | [13] > 100 µM | [14] > 100 µM | [15] > 100 µM | [16] > 100 µM | [17] > 100 µM

CC1CC(c2ccc(Cl)c(Cl)c2)=Nc2ccccc2S1 (centres undefined)
inactive: [1] > 100 µM | [2] > 100 µM | [3] > 100 µM | [4] 41.9 µM | [5] > 100 µM | [6] > 100 µM | [7] > 100 µM | [8] > 100 µM | [9] > 100 µM | [10] > 100 µM | [11] > 100 µM | [12] > 100 µM | [13] > 100 µM | [14] > 100 µM | [16] 46 µM | [17] > 100 µM

O=[N+]([O-])c1nccn1COCCF
inactive: [1] > 100 µM | [2] > 100 µM | [3] > 100 µM | [4] > 100 µM | [5] > 100 µM | [6] > 100 µM | [7] > 100 µM | [8] > 100 µM | [9] > 100 µM | [10] > 100 µM | [11] > 100 µM | [12] > 100 µM | [13] > 100 µM | [14] > 100 µM | [15] > 100 µM | [16] > 100 µM | [17] > 100 µM

C[n+]1c2ccccc2c(NC(CCCNC(=N)N)C(=O)O)c2ccccc21 (centres undefined)
inactive: [1] > 100 µM | [2] > 100 µM | [3] > 100 µM | [5] > 100 µM | [6] 39.1 µM | [7] > 100 µM | [8] > 100 µM | [9] > 100 µM | [10] > 100 µM | [11] > 100 µM | [12] > 100 µM | [13] > 100 µM | [15] > 100 µM | [16] > 100 µM | [17] 75.2 µM

[O-]/N=[N+](/[O-])C1CCCCC1=[N+]1CCOCC1 (centres undefined)
inactive: [1] > 100 µM | [2] > 100 µM | [3] > 100 µM | [4] > 100 µM | [5] > 100 µM | [6] > 100 µM | [7] > 100 µM | [8] > 100 µM | [9] > 100 µM | [10] > 100 µM | [11] > 100 µM | [12] > 100 µM | [14] > 100 µM | [15] > 100 µM | [16] > 100 µM | [17] > 100 µM

COC(=O)/C(C=O)=C/Sc1ccccc1
inactive: [1] 15.2 µM | [2] 26.4 µM | [3] 24.2 µM | [4] 57.5 µM | [5] 29 µM | [6] 45.5 µM | [7] 24.1 µM | [8] 16.6 µM | [10] 36.4 µM | [11] 45 µM | [12] 15.6 µM | [13] 18 µM | [14] 19.4 µM | [15] 30.9 µM | [16] 40.1 µM | [17] 10.5 µM

CC(C)OP(=O)(OC(C)C)/C(=N/Nc1ccc([N+](=O)[O-])cc1)NN
inactive: [1] > 100 µM | [2] 98.6 µM | [3] > 100 µM | [4] > 100 µM | [5] 61.9 µM | [6] > 100 µM | [7] > 100 µM | [8] > 100 µM | [9] > 100 µM | [10] 55.2 µM | [11] > 100 µM | [12] > 100 µM | [13] > 100 µM | [14] > 100 µM | [15] > 100 µM | [16] > 100 µM | [17] 88.5 µM

O=C1C(Cl)=C(Cl)C(=O)N1C1C2CC3CC(C2)CC1C3 (centres undefined)
inactive: [1] > 100 µM | [2] > 100 µM | [3] 38.3 µM | [4] 19.3 µM | [5] > 100 µM | [6] 24.5 µM | [8] > 100 µM | [9] > 100 µM | [10] > 100 µM | [11] > 100 µM | [12] > 76.4 µM | [13] > 100 µM | [14] > 100 µM | [15] > 100 µM | [16] 31 µM | [17] > 100 µM

CC1=NOC(=O)/C1=C/c1ccc([N+](=O)[O-])cc1
inactive: [1] > 100 µM | [2] > 100 µM | [3] > 100 µM | [4] > 100 µM | [5] > 100 µM | [6] > 100 µM | [7] > 100 µM | [8] > 100 µM | [9] > 100 µM | [10] > 100 µM | [11] > 100 µM | [12] > 100 µM | [13] > 100 µM | [14] > 100 µM | [15] > 100 µM | [16] > 100 µM | [17] > 100 µM

CC(C)(C)/N=C/N1C=Cc2nc3ccccc3cc2C1
inactive: [1] > 100 µM | [2] > 100 µM | [3] > 100 µM | [4] > 100 µM | [5] > 100 µM | [6] 75.7 µM | [7] > 100 µM | [8] > 100 µM | [9] > 100 µM | [10] > 100 µM | [11] > 100 µM | [12] > 100 µM | [13] > 100 µM | [14] > 100 µM | [15] > 100 µM | [16] > 100 µM | [17] > 100 µM

Cc1ccc(NCC2(/N=C/c3ccccc3)OC(CO)C(O)C2O)cc1 (centres undefined)
inactive: [1] 49.5 µM | [2] 74.3 µM | [3] 46.6 µM | [4] 31.6 µM | [6] 20.5 µM | [7] 67.9 µM | [8] 40.9 µM | [9] 37.2 µM | [10] 54.1 µM | [11] 60.1 µM | [12] > 100 µM | [13] 41.7 µM | [14] 62.5 µM | [15] 31 µM | [16] 27.1 µM | [17] 61.7 µM

O=c1cc(-c2ccc(Cl)cc2)oc2cc(OCCCOc3ccc4c(=O)cc(-c5ccc(Cl)cc5)oc4c3)ccc12
inactive: [1] > 100 µM | [2] > 100 µM | [3] > 100 µM | [4] > 100 µM | [5] > 100 µM | [6] > 100 µM | [7] > 100 µM | [8] > 100 µM | [9] > 100 µM | [10] > 100 µM | [11] > 100 µM | [12] > 100 µM | [13] > 100 µM | [14] > 100 µM | [15] > 100 µM | [16] > 100 µM

COC(=O)c1c2c(cc3c1CC1(C3)Cc3cc4c(c(C(=O)OC)c3C1)CCC4)CCC2
inactive: [1] > 100 µM | [2] > 100 µM | [4] 98.9 µM | [5] > 100 µM | [6] 22.1 µM | [7] > 100 µM | [8] > 100 µM | [9] > 100 µM | [10] > 100 µM | [18] > 100 µM | [11] 86.9 µM | [12] > 100 µM | [13] > 100 µM | [15] > 100 µM | [16] 30.7 µM | [17] 13.6 µM

CC1=C(O)C(=O)c2cn(C)cc2C1=O
inactive: [1] > 100 µM | [2] > 100 µM | [3] > 100 µM | [4] > 100 µM | [5] > 100 µM | [6] > 100 µM | [7] > 100 µM | [8] > 100 µM | [9] > 100 µM | [10] > 100 µM | [11] > 100 µM | [12] > 100 µM | [13] > 100 µM | [14] > 100 µM | [15] > 100 µM | [16] > 100 µM | [17] > 100 µM

O=C(O)C1c2ccccc2C(C(=O)O)c2ccccc21 (centres undefined)
inactive: [1] > 100 µM | [2] > 100 µM | [3] > 100 µM | [4] > 100 µM | [6] > 100 µM | [7] > 100 µM | [8] > 100 µM | [9] > 100 µM | [11] > 100 µM | [12] > 100 µM | [13] > 100 µM | [15] > 100 µM | [16] > 100 µM | [17] > 100 µM

O=C(c1cc2ccccc2[nH]1)C(O)(c1cc2ccccc2[nH]1)c1cc2ccccc2[nH]1
inactive: [1] > 246 µM | [2] > 246 µM | [3] > 246 µM | [4] > 246 µM | [5] > 246 µM | [6] > 246 µM | [7] > 246 µM | [9] > 246 µM | [10] 112 µM | [12] > 246 µM | [13] 129 µM | [14] > 246 µM | [15] > 246 µM | [16] > 246 µM

CNc1ccc2ncccc2c1[N+](=O)[O-]
inactive: [1] > 100 µM | [2] > 100 µM | [3] > 100 µM | [4] > 100 µM | [5] > 100 µM | [6] > 100 µM | [7] > 100 µM | [8] > 100 µM | [9] > 100 µM | [10] > 100 µM | [11] > 100 µM | [12] > 100 µM | [13] > 100 µM | [14] > 100 µM | [15] > 100 µM | [16] > 100 µM | [17] > 100 µM
